Measurements taken from patent US11554116B2, “Agent for preventing and/or treating alzheimer's disease” (KYOTO UNIVERSITY, priority 2017, dated 2023).
Counter-ions that a name gives are not always drawn. Like-named read-outs stand apart in the source and are kept apart here.

System: Aβ production (Aβ1-40, 1-42 in culture supernatant)
Assay: Aβ assay in cerebral cortex nerve cells induced from familial AD patient iPS cells (PSEN1 G384A)
Format: cell-based, human
[1] = added at 0.0016, 0.008, 0.04, 0.2, 1, 5, 25 μM to cerebral cortex nerve cells, 48 hr

| SMILES | Aβ production-lowering action | change of Aβ production [1] | further results |
| --- | --- | --- | --- |
| CC(C)[C@@]1(NC(=O)[C@@H]2C=C3c4cccc5[nH]cc(c45)C[C@H]3N(C)C2)O[C@@]2(O)[C@@H]3CCCN3C(=O)[C@H](Cc3ccccc3)N2C1=O [Ergocristine, ergocristine] | showed a similar Aβ production-lowering action |  |  |
| CN1C[C@H](C(=O)N[C@]2(C)O[C@@]3(O)[C@@H]4CCCN4C(=O)[C@H](Cc4ccccc4)N3C2=O)C[C@@H]2c3cccc4[nH]cc(c34)C[C@H]21.CS(=O)(=O)O [Dihydroergotamine Mesylate, dihydroergotamine] | showed a similar Aβ production-lowering action |  |  |
| CCCN1C[C@H](CSC)C[C@@H]2c3cccc4[nH]cc(c34)C[C@H]21 [Pergolide mesylate] |  |  | Aβ production-lowering action (at 5, 25 μM, cerebral cortex nerve cells, 48 hr): showed an Aβ production-lowering action |
| C=CCN1C[C@H](C(=O)N(CCCN(C)C)C(=O)NCC)C[C@@H]2c3cccc4[nH]cc(c34)C[C@H]21 [Cabergoline] |  |  | Aβ production-lowering action (at 25 μM, cerebral cortex nerve cells, 48 hr): showed an Aβ production-lowering action |
| CN1C[C@H](C(=O)N[C@]2(C)O[C@@]3(O)[C@@H]4CCCN4C(=O)[C@H](Cc4ccccc4)N3C2=O)C=C2c3cccc4[nH]cc(c34)C[C@H]21.CN1C[C@H](C(=O)N[C@]2(C)O[C@@]3(O)[C@@H]4CCCN4C(=O)[C@H](Cc4ccccc4)N3C2=O)C=C2c3cccc4[nH]cc(c34)C[C@H]21.O=C(O)C(O)C(O)C(=O)O [Ergotamine Tartrate, ergotamine] | showed a similar Aβ production-lowering action |  |  |
| C=CCN1CCc2nc(N)sc2CC1 [Talipexole] |  | none of the compounds changed Aβ production |  |
| CC(C)C[C@H]1C(=O)N2CCC[C@H]2[C@]2(O)O[C@](NC(=O)[C@@H]3C=C4c5cccc6[nH]c(Br)c(c56)C[C@H]4N(C)C3)(C(C)C)C(=O)N12 [bromocriptine] | decreases the production of Aβ |  | Aβ42/40 ratio: lower Aβ42/40 ratio; lowering of Aβ42 subtype compared with Aβ40: more efficiently reduced the production of Aβ42 subtype than Aβ40 |
| CC(C)C[C@H]1C(=O)N2CCC[C@H]2[C@]2(O)O[C@](NC(=O)[C@@H]3C=C4c5cccc6[nH]cc(c56)C[C@H]4N(C)C3)(C(C)C)C(=O)N12 [Alpha-Ergocryptine, α-ergocryptine] | showed an Aβ production-lowering action similar to that of bromocriptine |  | Aβ42/40 ratio: did not change; lowering of Aβ42 subtype compared with Aβ40: lowered Aβ40 and 42 to the same degree |
| CC(C)[C@@]1(NC(=O)[C@@H]2C[C@@H]3c4cccc5[nH]cc(c45)C[C@H]3N(C)C2)O[C@@]2(O)[C@@H]3CCCN3C(=O)[C@H](Cc3ccccc3)N2C1=O [Dihydroergocristine mesylate, dihydroergocristine] | showed a similar Aβ production-lowering action |  |  |
| Cc1cccc(C(=O)NCN2CCN(c3ccccc3C#N)CC2)c1 [PD168077] |  | none of the compounds changed Aβ production |  |
| CCCN[C@H]1CCc2nc(N)sc2C1 [Pramipexole dihydrochloride] |  | none of the compounds changed Aβ production |  |
| Cl.NCCc1ccc(O)c(O)c1 [dopamine hydrochloride] |  |  | change of Aβ production: none of the compounds changed Aβ production |
| Oc1cc2c(cc1O)C(c1ccccc1)CNCC2 (stereo not drawn) [SKF38393] |  | none of the compounds changed Aβ production |  |
| CCCN(CCC)CCc1cccc2c1CC(=O)N2 [Ropinirole hydrochloride] |  | none of the compounds changed Aβ production |  |
